According to ChEMBL document CHEMBL3271945, “Azabicyclo chemistry. 6. An investigation of one of the chemical parameters for analgetic activity. Synthesis of 2-methyl-2-azabicyclo[3.3.1]non-6-ene and -non-7-ene” (J Med Chem, 1977):
Calls of active or inactive are those of the source. The calls are words filed in the database; no cut-off is given here.

Tests used:
Mus musculus [1] = test: Analgetic activity in mouse at 100 mg/kg, sc by hot-plate method; assay type: functional, organism-based; parameters: dose 100 mg/kg
Mus musculus [2] = test: Analgetic activity in sc dosed mouse by hot-plate method; assay type: functional
Mus musculus [3] = test: Toxicity in mouse at 100 mg/kg, sc; assay type: organism-based; parameters: dose 100 mg/kg, route subcutaneous; conditions: in vivo
Mus musculus [4] = test: Analgetic activity in mouse at 50 mg/kg, sc by hot-plate method; assay type: functional, organism-based; parameters: dose 50 mg/kg

SMILES	ED50 (Mus musculus [2])	also measured
CN1CC[C@@H]2CC=C[C@@H]1C2	–	Activity (Mus musculus [1]): inactive
CN1CC[C@@]2(C)C[C@H]1Cc1ccccc12	11 mg/kg	–
CN1CCC2CC1C[C@@H](O)C2 (stereo partly drawn)	–	Activity (Mus musculus [1]): inactive
CN1CC[C@H]2C[C@H]1Cc1ccc(O)cc12	4.5 mg/kg	–
CN1CC[C@]23c4c5ccc(O)c4O[C@H]2[C@@H](O)C=C[C@H]3[C@H]1C5 [MORPHINE]	1.2 mg/kg	–
CN1CC[C@@H]2C=CC[C@@H]1C2	–	Activity (Mus musculus [3]): Toxic; Activity (Mus musculus [4]): inactive
CN1CCC2CC(=O)CC1C2 (stereo not drawn)	40 mg/kg	–
